Consider six compounds from ChEMBL document CHEMBL1159256, “Acetylcholinesterase inhibition by territrem B derivatives” (J Nat Prod, 1995).

Assay [1] has as its target Acetylcholinesterase (Electrophorus electricus) (UniProt O42275). Put plainly: (§1) Inhibition of electric eel AChE by Ellman's method.
A further assay concerns the target Acetylcholinesterase (Electrophorus electricus, UniProt O42275). The description is as §1. The settings on record: read-out: I50.

Calls of active or inactive are those of the source. The rule behind the calls is not given here.

Acetylcholinesterase, sequence (O42275 whole entry): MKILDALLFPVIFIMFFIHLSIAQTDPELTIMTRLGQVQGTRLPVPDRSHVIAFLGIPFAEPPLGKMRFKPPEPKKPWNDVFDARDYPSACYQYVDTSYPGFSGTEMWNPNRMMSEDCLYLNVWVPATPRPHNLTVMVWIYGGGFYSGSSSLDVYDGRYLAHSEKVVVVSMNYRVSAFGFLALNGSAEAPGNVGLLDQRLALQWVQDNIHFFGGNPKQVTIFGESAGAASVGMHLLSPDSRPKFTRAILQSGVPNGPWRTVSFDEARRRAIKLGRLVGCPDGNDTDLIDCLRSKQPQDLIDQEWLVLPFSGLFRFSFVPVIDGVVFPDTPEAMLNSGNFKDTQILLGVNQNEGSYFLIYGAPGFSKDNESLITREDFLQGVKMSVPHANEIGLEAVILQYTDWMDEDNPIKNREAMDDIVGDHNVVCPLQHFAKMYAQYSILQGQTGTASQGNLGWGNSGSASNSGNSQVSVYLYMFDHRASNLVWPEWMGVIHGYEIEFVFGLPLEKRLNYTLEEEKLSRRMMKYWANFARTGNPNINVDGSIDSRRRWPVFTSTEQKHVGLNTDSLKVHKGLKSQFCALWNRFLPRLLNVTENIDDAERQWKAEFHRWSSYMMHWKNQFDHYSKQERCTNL
Acetylcholinesterase (Electrophorus electricus), sequence (O42275 24-633 limits assumed): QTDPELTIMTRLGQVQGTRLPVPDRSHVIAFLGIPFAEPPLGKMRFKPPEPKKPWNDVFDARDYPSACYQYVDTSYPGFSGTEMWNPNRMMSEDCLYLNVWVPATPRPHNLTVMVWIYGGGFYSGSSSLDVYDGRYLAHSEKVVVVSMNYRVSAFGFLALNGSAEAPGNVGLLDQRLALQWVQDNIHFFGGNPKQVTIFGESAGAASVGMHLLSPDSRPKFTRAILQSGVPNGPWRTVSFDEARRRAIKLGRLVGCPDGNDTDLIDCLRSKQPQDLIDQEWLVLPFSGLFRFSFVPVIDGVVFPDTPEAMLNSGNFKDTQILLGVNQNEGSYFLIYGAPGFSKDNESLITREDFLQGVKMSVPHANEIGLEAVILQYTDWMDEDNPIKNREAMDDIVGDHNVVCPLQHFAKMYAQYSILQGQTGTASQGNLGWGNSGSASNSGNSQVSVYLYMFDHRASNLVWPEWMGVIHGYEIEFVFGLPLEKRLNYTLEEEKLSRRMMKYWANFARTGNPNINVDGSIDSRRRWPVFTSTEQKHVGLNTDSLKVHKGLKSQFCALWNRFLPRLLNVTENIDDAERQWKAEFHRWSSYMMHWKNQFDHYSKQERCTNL

`COc1cc(CCC2=C(C(=O)O)C[C@]3(O)[C@@]4(C)C(=O)CCC(C)(C)[C@]4(O)CC[C@@]3(C)O2)cc(OC)c1OC`: the result in assay [1] was inactive. `COc1cc(-c2cc3c(c(=O)o2)C[C@]2(O)[C@@]4(C)[C@H](O)C=CC(C)(C)[C@]4(O)CC[C@@]2(C)O3)cc(OC)c1OC` [1-DIHYDROTERRITREM B]: the IC50 at Acetylcholinesterase was determined as 79000 nM. The same measure, in the same setting: the value for `COc1cc(-c2cc3c(c(=O)o2)C[C@]2(O)[C@@]4(C)C(=O)CCC(C)(C)[C@]4(O)CC[C@@]2(C)O3)cc(OC)c1OC` [2,3-DIHYDROTERRITREM B] was 2200 nM; that for `COc1cc(-c2cc3c(c(=O)o2)C[C@]2(O)[C@@]4(C)C(=O)[C@H]5O[C@H]5C(C)(C)[C@]4(O)CC[C@@]2(C)O3)cc(OC)c1OC` [2,3-EPOXYTERRITREM B] was 170 nM; that for `COc1cc(-c2cc3c(c(=O)o2)C[C@]2(O)[C@@]4(C)C(=O)C=C[C@](C)(CI)[C@]4(O)CC[C@@]2(C)O3)cc(OC)c1OC` [4BETA-IODOMETHYL-4BETA-DEMETHYL-TERRITREM B] was 290 nM.

The inhibition is how much of the control response was suppressed. In assay [1] (concentration not given here), `COc1cc(-c2cc3c(c(=O)o2)C[C@]2(O)[C@@]4(C)C(=O)C=CC(C)(C)[C@]4(O)CC[C@@]2(C)O3)cc(OC)c1OC` [TERRITREM B] displayed an inhibition of 50%. Also, the IC50 on Acetylcholinesterase came out at 260 nM.
